# How the values were obtained:
# [1] = features known in the art; cited from earlier work
# [2] = tested on: M14 cells; test: Intracellular ROS analysis by FACS (H2DCF-DA); type: cell-based, human; conditions: EO 10 μg/ml for 24 hours; H2O2 5 mM
# Protocol: The generation of ROS species (reactive oxygen species) was analysed by FACS, using the probe sensitive to the oxidant 2 ‘, 7’-dichlorodihydrofluorescein (H2DCF-DA). The C. zeylanicum EO was administered at a dose of 10 μg/ml for 24 hours. […] H2O2 at a concentration of 5 mM was used as a control for the generation of ROS.
# [3] = rats; cited from earlier work
# [4] = tested on: M14 cells; test: Colony formation assay; type: cell-based, human
# Protocol: Ten days after seeding, a solution of 2% methylene blue in 95% ethanol was added to the obtained monolayer and incubated for at least 30 minutes. The plates were then washed with ddH2O and the colonies (at least 50 cells) were counted. The results were expressed as a percentage of colonies formed with respect to the number of cells seeded. Cell survival rate was calculated as % compared to control cells.
# [5] = tested on: melanoma; conditions: phase III study; cited from earlier work
# [6] = tested on: advanced melanoma, untreated brain metastases, and other solid tumours; conditions: phase I study; cited from earlier work
smiles,measurement,setting,value
O=c1ccc2ccccc2o1 [Coumarin],"toxicity (liver, kidney) / general safety",[1],can cause liver and kidney damage
"OO [H2O2, hydrogen peroxide]",oxidative stress (intracellular ROS) in M14 cells compared with PBMCs,[2],greater oxidative stress
C=CCc1ccc2c(c1)OCO2 [Safrole],carcinogenicity,[3],weak carcinogenicity
"CC/C(=C(\c1ccccc1)c1ccc(OCCN(C)C)cc1)c1ccccc1 [TAM, Tamoxifen]",survival of M14 cells compared to control,"[4]; EO 10 μg/ml, TAM 0, 1 μM, 24 hours",no significant differences in survival compared to control
"CC(=O)O[C@H]1C(=O)[C@@]2(C)[C@H]([C@H](OC(=O)c3ccccc3)[C@]3(O)C[C@H](OC(=O)[C@H](O)[C@@H](NC(=O)c4ccccc4)c4ccccc4)C(C)=C1C3(C)C)[C@]1(OC(C)=O)CO[C@@H]1C[C@@H]2O [Taxol, Paclitaxel]",induction of cell death in M14 cells,"[4]; 24 hours treatment, EO 10 μg/ml",less than 10%
O=CC=Cc1ccccc1 [cinnamaldehyde],cell survival (colonies vs untreated control),"[4]; M14 cells, 24 hours treatment",64.3%
CC(C)(C)c1nc(-c2cccc(NS(=O)(=O)c3c(F)cccc3F)c2F)c(-c2ccnc(N)n2)s1 [dabrafenib],ORR (objective response rate),[5],53%
same,median PFS (progression free survival),[5],5.1 months
same,ORR,[6],47%
